Reference: ChEMBL document CHEMBL4507299, “Data for DCP probe PF-04554878” (2021)

Assays:
[1] = molecular target: Activin receptor type-2A (Homo sapiens) (UniProt P27037)
[2] = molecular target: 5'-AMP-activated protein kinase catalytic subunit alpha-2 (Homo sapiens) (UniProt P54646)
[3] = molecular target: Mitogen-activated protein kinase kinase kinase 6 (Homo sapiens) (UniProt O95382)
[4] = molecular target: Tyrosine-protein kinase Blk (Homo sapiens) (UniProt P51451)
[5] = molecular target: Serine/threonine-protein kinase B-raf (Homo sapiens) (UniProt P15056)
[6] = molecular target: Protein-tyrosine kinase 6 (Homo sapiens) (UniProt Q13882)
[7] = molecular target: Calcium/calmodulin-dependent protein kinase type 1 (Homo sapiens) (UniProt Q14012)
Chain of Calcium/calmodulin-dependent protein kinase type 1 (Homo sapiens) (Q14012 whole entry, looked up): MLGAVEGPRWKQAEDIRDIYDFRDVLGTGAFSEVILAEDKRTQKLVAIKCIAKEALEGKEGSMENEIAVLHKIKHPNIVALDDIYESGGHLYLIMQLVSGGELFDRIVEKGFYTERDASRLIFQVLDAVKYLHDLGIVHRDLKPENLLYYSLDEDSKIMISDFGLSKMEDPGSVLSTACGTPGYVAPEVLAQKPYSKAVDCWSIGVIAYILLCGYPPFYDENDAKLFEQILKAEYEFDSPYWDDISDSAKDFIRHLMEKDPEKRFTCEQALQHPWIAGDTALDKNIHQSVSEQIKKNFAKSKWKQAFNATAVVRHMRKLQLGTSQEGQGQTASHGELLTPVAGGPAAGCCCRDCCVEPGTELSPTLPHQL

[8] = molecular target: Calcium/calmodulin-dependent protein kinase type II subunit beta (Homo sapiens) (UniProt Q13554)
Chain of Calcium/calmodulin-dependent protein kinase type II subunit beta (Homo sapiens) (Q13554 whole entry): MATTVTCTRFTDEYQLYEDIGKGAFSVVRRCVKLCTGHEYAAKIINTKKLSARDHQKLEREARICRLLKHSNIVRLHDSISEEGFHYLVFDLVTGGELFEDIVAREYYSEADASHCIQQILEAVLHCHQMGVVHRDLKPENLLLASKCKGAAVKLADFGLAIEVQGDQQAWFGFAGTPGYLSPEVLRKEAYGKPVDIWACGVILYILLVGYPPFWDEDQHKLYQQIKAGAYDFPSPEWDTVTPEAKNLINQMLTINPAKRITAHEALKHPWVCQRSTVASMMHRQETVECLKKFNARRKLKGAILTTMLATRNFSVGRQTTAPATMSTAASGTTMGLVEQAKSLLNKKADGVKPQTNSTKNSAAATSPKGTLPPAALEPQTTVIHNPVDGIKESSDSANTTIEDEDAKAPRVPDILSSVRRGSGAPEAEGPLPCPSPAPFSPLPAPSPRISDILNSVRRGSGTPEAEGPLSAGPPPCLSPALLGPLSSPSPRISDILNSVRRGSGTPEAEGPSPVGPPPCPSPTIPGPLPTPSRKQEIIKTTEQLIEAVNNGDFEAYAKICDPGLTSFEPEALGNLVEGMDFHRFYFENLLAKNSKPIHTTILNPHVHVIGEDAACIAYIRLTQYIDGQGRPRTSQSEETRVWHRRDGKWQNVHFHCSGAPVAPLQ

[9] = molecular target: Calcium/calmodulin-dependent protein kinase kinase 2 (Homo sapiens) (UniProt Q96RR4)
[10] = molecular target: Tyrosine-protein kinase CSK (Homo sapiens) (UniProt P41240)
[11] = molecular target: Casein kinase I isoform gamma-2 (Homo sapiens) (UniProt P78368)
[12] = system: Epidermal growth factor receptor (Homo sapiens), P00533 [T790M]
[13] = molecular target: Ephrin type-A receptor 1 (Homo sapiens) (UniProt P21709)
[14] = system: Fibroblast growth factor receptor 3 (Homo sapiens), P22607 [G697C]
[15] = system: Receptor-type tyrosine-protein kinase FLT3 (Homo sapiens), P36888 [UNDEFINED MUTATION]
Chain of Receptor-type tyrosine-protein kinase FLT3 (Homo sapiens), P36888 [UNDEFINED MUTATION] (P36888 whole entry, looked up, stated change not applied): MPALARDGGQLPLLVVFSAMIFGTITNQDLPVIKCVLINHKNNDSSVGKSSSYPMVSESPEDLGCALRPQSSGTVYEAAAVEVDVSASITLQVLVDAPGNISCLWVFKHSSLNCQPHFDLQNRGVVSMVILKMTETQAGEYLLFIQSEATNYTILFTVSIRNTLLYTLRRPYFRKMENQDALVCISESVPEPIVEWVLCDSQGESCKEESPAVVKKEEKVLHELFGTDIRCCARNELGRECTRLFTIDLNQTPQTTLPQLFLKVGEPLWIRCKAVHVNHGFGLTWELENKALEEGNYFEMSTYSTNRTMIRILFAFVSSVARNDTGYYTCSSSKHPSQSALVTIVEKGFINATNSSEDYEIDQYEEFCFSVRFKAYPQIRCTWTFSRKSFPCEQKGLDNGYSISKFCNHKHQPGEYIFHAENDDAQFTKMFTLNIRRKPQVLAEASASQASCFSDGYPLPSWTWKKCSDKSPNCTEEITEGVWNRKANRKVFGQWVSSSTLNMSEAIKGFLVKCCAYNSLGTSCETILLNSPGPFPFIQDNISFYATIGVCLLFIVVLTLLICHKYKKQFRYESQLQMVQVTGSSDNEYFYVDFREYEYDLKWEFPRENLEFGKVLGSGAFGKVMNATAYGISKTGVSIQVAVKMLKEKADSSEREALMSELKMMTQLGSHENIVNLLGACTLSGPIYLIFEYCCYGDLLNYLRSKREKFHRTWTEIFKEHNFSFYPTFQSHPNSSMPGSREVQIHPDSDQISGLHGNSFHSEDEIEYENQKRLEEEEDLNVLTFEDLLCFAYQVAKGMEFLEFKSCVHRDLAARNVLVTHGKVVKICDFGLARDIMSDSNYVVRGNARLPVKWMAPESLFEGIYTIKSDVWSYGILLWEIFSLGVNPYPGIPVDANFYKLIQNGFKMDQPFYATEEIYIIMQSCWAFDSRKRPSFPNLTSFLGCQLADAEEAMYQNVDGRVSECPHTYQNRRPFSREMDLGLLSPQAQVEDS

[16] = system: eIF-2-alpha kinase GCN2 (Homo sapiens), Q9P2K8 [S808G]
[17] = molecular target: Homeodomain-interacting protein kinase 1 (Homo sapiens) (UniProt Q86Z02)
[18] = molecular target: Leucine-rich repeat serine/threonine-protein kinase 2 (Homo sapiens) (UniProt Q5S007)
[19] = molecular target: Maternal embryonic leucine zipper kinase (Homo sapiens) (UniProt Q14680)
[20] = molecular target: Dual specificity mitogen-activated protein kinase kinase 7 (Homo sapiens) (UniProt O14733)
[21] = molecular target: Myosin-IIIb (Homo sapiens) (UniProt Q8WXR4)
[22] = molecular target: Mitogen-activated protein kinase 12 (Homo sapiens) (UniProt P53778)
[23] = molecular target: Serine/threonine-protein kinase PAK 3 (Homo sapiens) (UniProt O75914)
[24] = molecular target: Platelet-derived growth factor receptor beta (Homo sapiens) (UniProt P09619)
[25] = molecular target: Cyclin-dependent kinase 2 homolog (Plasmodium falciparum (isolate 3D7)) (UniProt P61075)
[26] = system: Phosphatidylinositol 4,5-bisphosphate 3-kinase catalytic subunit alpha isoform (Homo sapiens), P42336 [E545A]
[27] = molecular target: Phosphatidylinositol 4-phosphate 5-kinase type-1 alpha (Homo sapiens) (UniProt Q99755)
Chain of Phosphatidylinositol 4-phosphate 5-kinase type-1 alpha (Homo sapiens) (Q99755 whole entry): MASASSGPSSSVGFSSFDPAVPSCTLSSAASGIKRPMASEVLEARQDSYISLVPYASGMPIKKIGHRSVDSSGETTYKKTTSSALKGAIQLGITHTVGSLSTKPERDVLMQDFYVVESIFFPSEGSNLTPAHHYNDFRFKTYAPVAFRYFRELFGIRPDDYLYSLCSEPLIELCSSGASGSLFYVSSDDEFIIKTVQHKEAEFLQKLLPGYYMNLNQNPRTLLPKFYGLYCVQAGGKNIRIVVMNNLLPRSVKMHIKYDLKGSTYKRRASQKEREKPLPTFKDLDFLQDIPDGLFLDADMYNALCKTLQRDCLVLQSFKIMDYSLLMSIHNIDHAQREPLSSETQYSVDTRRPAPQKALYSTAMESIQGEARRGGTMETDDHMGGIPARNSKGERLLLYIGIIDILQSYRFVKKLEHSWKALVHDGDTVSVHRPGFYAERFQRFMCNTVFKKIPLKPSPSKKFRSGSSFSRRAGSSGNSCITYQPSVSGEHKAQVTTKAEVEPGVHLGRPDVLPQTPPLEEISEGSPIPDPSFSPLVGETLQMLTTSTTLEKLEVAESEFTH

[28] = molecular target: Phosphatidylinositol 4-phosphate 5-kinase type-1 gamma (Homo sapiens) (UniProt O60331)
Chain of Phosphatidylinositol 4-phosphate 5-kinase type-1 gamma (Homo sapiens) (O60331 whole entry): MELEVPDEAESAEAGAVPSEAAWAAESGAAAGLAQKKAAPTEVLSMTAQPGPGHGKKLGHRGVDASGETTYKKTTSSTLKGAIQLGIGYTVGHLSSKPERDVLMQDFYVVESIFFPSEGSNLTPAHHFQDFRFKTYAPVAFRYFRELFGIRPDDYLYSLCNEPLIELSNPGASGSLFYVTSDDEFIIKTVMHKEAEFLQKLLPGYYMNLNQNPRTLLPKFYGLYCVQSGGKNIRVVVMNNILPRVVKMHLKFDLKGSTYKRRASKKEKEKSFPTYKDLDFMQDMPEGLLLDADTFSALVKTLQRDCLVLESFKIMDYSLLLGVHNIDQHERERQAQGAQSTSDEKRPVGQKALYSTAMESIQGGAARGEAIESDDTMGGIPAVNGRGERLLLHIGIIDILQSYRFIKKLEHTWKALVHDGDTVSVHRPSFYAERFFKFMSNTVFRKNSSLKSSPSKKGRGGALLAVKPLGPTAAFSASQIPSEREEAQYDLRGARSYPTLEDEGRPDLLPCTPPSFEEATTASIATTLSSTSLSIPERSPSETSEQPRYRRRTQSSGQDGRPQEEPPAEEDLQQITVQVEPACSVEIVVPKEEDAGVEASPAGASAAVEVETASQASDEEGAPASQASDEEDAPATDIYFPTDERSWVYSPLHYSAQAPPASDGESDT

[29] = molecular target: cAMP-dependent protein kinase catalytic subunit alpha (Homo sapiens) (UniProt P17612)
[30] = molecular target: Protein kinase C epsilon type (Homo sapiens) (UniProt Q02156)
[31] = molecular target: Protein kinase C iota type (Homo sapiens) (UniProt P41743)
[32] = molecular target: Protein kinase C theta type (Homo sapiens) (UniProt Q04759)
[33] = molecular target: Serine/threonine-protein kinase SIK3 (Homo sapiens) (UniProt Q9Y2K2)
[34] = molecular target: Proto-oncogene tyrosine-protein kinase receptor Ret (Homo sapiens) (UniProt P07949)
[35] = system: Proto-oncogene tyrosine-protein kinase receptor Ret (Homo sapiens), P07949 [V804M]
[36] = molecular target: Proto-oncogene tyrosine-protein kinase ROS (Homo sapiens) (UniProt P08922)
[37] = molecular target: TGF-beta receptor type-2 (Homo sapiens) (UniProt P37173)
[38] = molecular target: Serine/threonine-protein kinase ULK2 (Homo sapiens) (UniProt Q8IYT8)
[39] = molecular target: Vascular endothelial growth factor receptor 2 (Homo sapiens) (UniProt P35968)
[40] = molecular target: Phosphatidylinositol 3-kinase catalytic subunit type 3 (Homo sapiens) (UniProt Q8NEB9)
[41] = molecular target: Serine/threonine-protein kinase VRK2 (Homo sapiens) (UniProt Q86Y07)
Chain of Serine/threonine-protein kinase VRK2 (Homo sapiens) (Q86Y07 whole entry): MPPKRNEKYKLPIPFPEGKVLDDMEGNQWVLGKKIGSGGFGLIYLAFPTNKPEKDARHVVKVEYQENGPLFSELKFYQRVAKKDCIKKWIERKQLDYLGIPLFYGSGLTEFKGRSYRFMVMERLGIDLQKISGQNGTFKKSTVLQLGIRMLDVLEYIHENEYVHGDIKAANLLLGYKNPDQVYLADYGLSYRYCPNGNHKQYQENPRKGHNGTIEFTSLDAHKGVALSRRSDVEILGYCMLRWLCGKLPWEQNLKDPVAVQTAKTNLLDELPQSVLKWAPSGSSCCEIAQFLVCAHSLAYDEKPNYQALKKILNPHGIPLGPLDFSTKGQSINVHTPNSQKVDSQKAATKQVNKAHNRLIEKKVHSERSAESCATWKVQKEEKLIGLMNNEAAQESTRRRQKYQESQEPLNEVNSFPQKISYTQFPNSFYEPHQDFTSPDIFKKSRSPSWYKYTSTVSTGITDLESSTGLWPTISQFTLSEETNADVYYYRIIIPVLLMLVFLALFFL

[42] = molecular target: Serine/threonine-protein kinase 25 (Homo sapiens) (UniProt O00506)
[43] = molecular target: 5-hydroxytryptamine receptor 6 (Homo sapiens) (UniProt P50406); details: Compound concentration 10.0 uM
[44] = molecular target: D(1B) dopamine receptor (Homo sapiens) (UniProt P21918); details: Compound concentration 10.0 uM
[45] = molecular target: Sodium-dependent noradrenaline transporter (Homo sapiens) (UniProt P23975); details: Compound concentration 10.0 uM
Chain of Sodium-dependent noradrenaline transporter (Homo sapiens) (P23975 whole entry): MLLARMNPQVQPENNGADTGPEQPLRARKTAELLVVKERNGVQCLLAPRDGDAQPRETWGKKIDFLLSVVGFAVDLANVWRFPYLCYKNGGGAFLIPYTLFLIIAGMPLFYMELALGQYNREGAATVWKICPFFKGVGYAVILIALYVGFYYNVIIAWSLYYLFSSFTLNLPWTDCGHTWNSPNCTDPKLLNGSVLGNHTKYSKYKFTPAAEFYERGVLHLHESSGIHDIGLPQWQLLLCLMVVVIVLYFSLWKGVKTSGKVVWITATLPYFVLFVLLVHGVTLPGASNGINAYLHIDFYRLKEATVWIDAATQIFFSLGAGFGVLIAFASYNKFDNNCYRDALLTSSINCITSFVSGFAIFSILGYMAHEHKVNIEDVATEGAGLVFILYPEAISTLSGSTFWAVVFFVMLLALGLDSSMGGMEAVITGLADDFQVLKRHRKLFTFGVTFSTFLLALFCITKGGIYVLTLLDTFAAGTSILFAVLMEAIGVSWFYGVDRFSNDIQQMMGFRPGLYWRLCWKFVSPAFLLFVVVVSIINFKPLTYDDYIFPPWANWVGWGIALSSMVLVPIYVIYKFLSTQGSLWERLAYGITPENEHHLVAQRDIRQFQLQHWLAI

[46] = Compound concentration 100.0 nM
[47] = Compound concentration 1000.0 nM

Chain of 5'-AMP-activated protein kinase catalytic subunit alpha-2 (Homo sapiens) (P54646 whole entry, looked up): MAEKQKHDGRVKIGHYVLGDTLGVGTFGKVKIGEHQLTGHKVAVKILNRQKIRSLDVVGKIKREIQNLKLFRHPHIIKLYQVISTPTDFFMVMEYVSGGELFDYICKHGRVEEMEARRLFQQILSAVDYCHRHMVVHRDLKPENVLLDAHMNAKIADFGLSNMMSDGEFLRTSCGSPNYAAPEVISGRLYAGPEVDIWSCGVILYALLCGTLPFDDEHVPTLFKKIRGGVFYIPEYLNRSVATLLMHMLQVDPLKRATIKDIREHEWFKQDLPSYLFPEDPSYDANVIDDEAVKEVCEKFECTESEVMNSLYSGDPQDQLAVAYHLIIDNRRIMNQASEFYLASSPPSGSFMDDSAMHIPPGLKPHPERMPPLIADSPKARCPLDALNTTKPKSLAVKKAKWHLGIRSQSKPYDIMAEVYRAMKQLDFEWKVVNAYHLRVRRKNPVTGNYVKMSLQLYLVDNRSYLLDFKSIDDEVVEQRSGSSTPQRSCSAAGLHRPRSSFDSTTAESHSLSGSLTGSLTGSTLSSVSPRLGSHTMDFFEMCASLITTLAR

CNC(=O)c1ccc(Nc2ncc(C(F)(F)F)c(NCc3nccnc3N(C)S(C)(=O)=O)n2)cc1 [DEFACTINIB]
residual activity [1, 46]: 90%
residual activity [2, 46]: 100%
residual activity [3, 46]: 90%
residual activity [4, 46]: 78%
residual activity [5, 46]: 100%
residual activity [6, 46]: 100%
residual activity [7, 46]: 100%
residual activity [8, 46]: 86%
residual activity [9, 46]: 68%
residual activity [10, 46]: 100%
residual activity [11, 46]: 99%
residual activity [12, 46]: 99%
residual activity [13, 46]: 98%
residual activity [14, 46]: 100%
residual activity [15, 46]: 14%
residual activity [16, 46]: 27%
residual activity [17, 46]: 27%
residual activity [18, 46]: 60%
residual activity [19, 46]: 23%
residual activity [20, 46]: 97%
residual activity [21, 46]: 100%
residual activity [22, 46]: 67%
residual activity [23, 46]: 100%
residual activity [24, 46]: 83%
residual activity [25, 46]: 89%
residual activity [26, 46]: 98%
residual activity [27, 46]: 98%
residual activity [28, 46]: 100%
residual activity [29, 46]: 100%
residual activity [30, 46]: 100%
residual activity [31, 46]: 84%
residual activity [32, 46]: 89%
residual activity [33, 46]: 82%
residual activity [34, 46]: 60%
residual activity [35, 46]: 30%
residual activity [36, 46]: 58%
residual activity [37, 46]: 100%
residual activity [38, 46]: 75%
residual activity [39, 46]: 73%
residual activity [40, 46]: 100%
residual activity [41, 46]: 85%
residual activity [42, 46]: 85%
inhibition [43]: -8.99%
inhibition [44]: -7.46%
inhibition [45]: 7.81%

CN(c1ccnc(CNc2nc(Nc3ccc4c(c3)CC(=O)N4)ncc2C(F)(F)F)n1)S(C)(=O)=O [PF-00911705]
residual activity [1, 47]: 100%
residual activity [2, 47]: 87%
residual activity [3, 47]: 73%
residual activity [4, 47]: 40%
residual activity [5, 47]: 82%
residual activity [6, 47]: 100%
residual activity [7, 47]: 72%
residual activity [8, 47]: 86%
residual activity [9, 47]: 69%
residual activity [10, 47]: 74%
residual activity [11, 47]: 100%
residual activity [12, 47]: 100%
residual activity [13, 47]: 86%
residual activity [14, 47]: 89%
residual activity [15, 47]: 0.7%
residual activity [16, 47]: 6.7%
residual activity [17, 47]: 45%
residual activity [18, 47]: 15%
residual activity [19, 47]: 40%
residual activity [20, 47]: 73%
residual activity [21, 47]: 68%
residual activity [22, 47]: 58%
residual activity [23, 47]: 88%
residual activity [24, 47]: 69%
residual activity [25, 47]: 75%
residual activity [26, 47]: 90%
residual activity [27, 47]: 12%
residual activity [28, 47]: 91%
residual activity [29, 47]: 81%
residual activity [30, 47]: 50%
residual activity [31, 47]: 55%
residual activity [32, 47]: 55%
residual activity [33, 47]: 82%
residual activity [34, 47]: 49%
residual activity [35, 47]: 31%
residual activity [36, 47]: 43%
residual activity [37, 47]: 100%
residual activity [38, 47]: 5.4%
residual activity [39, 47]: 56%
residual activity [40, 47]: 84%
residual activity [41, 47]: 78%
residual activity [42, 47]: 82%
inhibition [43]: 11.1%
inhibition [44]: -0.97%
inhibition [45]: 3.15%
